The record followed here is US11691972B2, “Compounds for targeted degradation of BRD9” (C4 Therapeutics, Inc., priority 2020, dated 2023).

This assay concerns the target T1, BRD9 (Homo sapiens, UniProt Q9H8M2).
T1 sequence (Q9H8M2 1-597): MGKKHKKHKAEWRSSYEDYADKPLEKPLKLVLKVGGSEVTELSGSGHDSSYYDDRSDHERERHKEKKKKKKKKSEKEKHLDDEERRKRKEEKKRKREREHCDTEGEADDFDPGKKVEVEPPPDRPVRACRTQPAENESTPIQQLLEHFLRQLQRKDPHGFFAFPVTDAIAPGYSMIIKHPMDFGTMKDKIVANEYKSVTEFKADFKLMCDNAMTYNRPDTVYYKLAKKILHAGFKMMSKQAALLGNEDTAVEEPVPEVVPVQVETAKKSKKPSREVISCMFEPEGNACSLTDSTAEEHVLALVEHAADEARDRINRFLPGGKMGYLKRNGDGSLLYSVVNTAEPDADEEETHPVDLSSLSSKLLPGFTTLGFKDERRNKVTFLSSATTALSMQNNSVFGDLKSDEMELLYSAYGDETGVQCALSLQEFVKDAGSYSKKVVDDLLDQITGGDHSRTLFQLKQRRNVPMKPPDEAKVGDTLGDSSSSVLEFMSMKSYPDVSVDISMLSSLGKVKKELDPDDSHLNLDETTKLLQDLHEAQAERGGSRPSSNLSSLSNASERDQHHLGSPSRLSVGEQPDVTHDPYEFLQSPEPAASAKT
The assay is described as follows: HiBiT BRD9 degradation assay in 293T.166 (BRD9-HiBiT) cells. The settings on record: 293T.166 cells, 2.0 hours, class symbols, read-out: HiBiT-Degradation 293T.166 BRD9 2.0 hours (DC50). More on the design: endogenously expressing BRD9 with HiBiT fusion tag via CRISPR; host or cells: 293T.166 (BRD9-HiBiT), also expressing LgBiT ectopically. The class given is cell-based. A digest of the protocol:
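293T.166 cells carrying endogenous CRISPR BRD9-HiBiT and expressing LgBiT treated 2 h at 37° C. with compounds, 11-point half-log titration from 10 μM in duplicate. Remaining BRD9 measured as lytic HiBiT luminescence; untreated cells as negative control, no-reagent wells as positive control.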

Molecules are shown by their SMILES. Like-named read-outs stand apart in the source and are kept apart here.

Regarding `COc1cc(-c2cn(C)c(=O)c3[nH]ncc23)cc(F)c1CN1CCN(C(=O)OC2CCN(c3ccc(NC4CCC(=O)NC4=O)cc3)CC2)CC1` (stereo not shown) [Compound 146, [1-[4-[(2,6-dioxo-3-piperidyl)amino]phenyl]-4-piperidyl] 4-[[2-fluoro-6-methoxy-4-(6-methyl-7-oxo-1H-pyrazolo[3,4-c]pyridin-4-yl)phenyl]methyl]piperazine-1-carboxylate], where the note is “Table 1”, the half-maximal degradation concentration (DC50) was below 100 nM.

`Cn1cc(-c2ccc(CN3CCN(C(=O)CN4CCC(c5ccc(NC6CCC(=O)NC6=O)cc5)CC4)CC3)c(OC(F)(F)F)c2)c2ccc(F)cc2c1=O` (stereo not shown) [Compound 36]: the DC50 (Table 1) was below 100 nM.

Consider `Cc1c(-c2ccc(C(=O)N3CCC(C4CCN(c5ccc(NC6CCC(=O)NC6=O)cc5F)CC4)CC3)c(OC(F)(F)F)c2)cn(C)c(=O)c1C` (single isomer, unassigned) [Compound 214, 3-[3-fluoro-4-[4-[1-[2-(trifluoromethoxy)-4-(1,4,5-trimethyl-6-oxo-3-pyridyl)benzoyl]-4-piperidyl]-1-piperidyl]anilino]piperidine-2,6-dione], for which, under “Table 1”, the 50% degradation concentration (DC50) was below 100 nM.

For `COc1cc(-c2cn(C)c(=O)c3[nH]ncc23)cc(OC)c1CN1CCN(C(=O)CC2CCN(c3ccc(NC4CCC(=O)NC4=O)cc3C(F)(F)F)CC2)CC1` (stereo not shown) [Compound 52, 3-[4-[4-[2-[4-[[2,6-dimethoxy-4-(6-methyl-7-oxo-1H-pyrazolo[3,4-c]pyridin-4-yl)phenyl]methyl]piperazin-1-yl]-2-oxo-ethyl]-1-piperidyl]-3-(trifluoromethyl)anilino]piperidine-2,6-dione], the 50% degradation concentration (DC50) (Table 1) is below 100 nM.

As to `COc1cc(-c2cn(C)c(=O)c3cnccc23)cc(Cl)c1CN1CCC(C2CCN(c3ccc(NC4CCC(=O)NC4=O)nc3)CC2)CC1` (stereo not shown) [Compound 89], under “Table 1”, the DC50 is below 100 nM.

On to `COc1cc(-c2cn(C)c(=O)c3cnccc23)cc(Cl)c1CN1CCC(C2CCN(c3ccc(NC4CCC(=O)NC4=O)nc3)CC2)C(F)(F)C1` (stereo not shown) [Compound 262], for which, where the note is “Table 2”, the DC50 was below 100 nM.

On to `COc1cc(-c2cn(C)c(=O)c(C)c2C)cc(OC)c1CN1CCC(N2CCN(c3ccc(NC4CCC(=O)NC4=O)cc3F)CC2)C(F)(F)C1` (single isomer, unassigned) [Compound 174, 3-[4-[4-[1-[[2,6-dimethoxy-4-(1,4,5-trimethyl-6-oxo-3-pyridyl)phenyl]methyl]-3,3-difluoro-4-piperidyl]piperazin-1-yl]-3-fluoro-anilino]piperidine-2,6-dione], for which the DC50 (Table 1) was below 100 nM.

As for `Cn1cc(-c2ccc(CN3CCc4c(cccc4CN4CCC(c5ccc(NC6CCC(=O)NC6=O)cc5)C(F)(F)C4)C3)c(OC(F)(F)F)c2)c2cn[nH]c2c1=O` (stereo not shown) [Compound 101], the DC50 (Table 1) is below 100 nM.

With `COc1cc(-c2cn(C)c(=O)c3[nH]ncc23)cc(OC)c1CC1CCN(C(=O)CN2CCC(c3ccc(NC4CCC(=O)NC4=O)cc3)CC2)CC1` (stereo not shown) [Compound 155, 3-[4-[1-[2-[4-[[2,6-dimethoxy-4-(6-methyl-7-oxo-1H-pyrazolo[3,4-c]pyridin-4-yl)phenyl]methyl]-1-piperidyl]-2-oxo-ethyl]-4-piperidyl]anilino]piperidine-2,6-dione], the DC50 (Table 1) was below 100 nM.

Take `COc1cc(-c2cn(C)c(=O)c3cnccc23)cc(OC)c1CN1CCC(N2CCN(c3ccc(NC4CCC(=O)NC4=O)cc3Cl)CC2)C(F)(F)C1` (stereo not shown) [Compound 188]: the DC50 (Table 1) is below 100 nM.

On to `COc1cc(-c2cn(C)c(=O)c(C)c2C)cc(OC)c1CN1CCC(N2CCN(c3ccc(NC4CCC(=O)NC4=O)cc3F)CC2)C(F)(F)C1` (single isomer, unassigned) [Compound 173, 3-[4-[4-[1-[[2,6-dimethoxy-4-(1,4,5-trimethyl-6-oxo-3-pyridyl)phenyl]methyl]-3,3-difluoro-4-piperidyl]piperazin-1-yl]-3-fluoro-anilino]piperidine-2,6-dione], for which, where the note is “Table 1”, the DC50 was below 100 nM.

`COc1cc(-c2cn(C)c(=O)c(C)c2C)cc(Cl)c1C(=O)N1CCC(N(C)C(=O)N2CCC(c3ccc(NC4CCC(=O)NC4=O)cc3)CC2)CC1` (stereo not shown) [Compound 133]: where the note is “Table 1”, the DC50 is below 100 nM.

On to `COc1cc(-c2cn(C)c(=O)c3cnccc23)cc(Cl)c1CN1CCC(F)(CCC2CCN(c3ccc(NC4CCC(=O)NC4=O)cc3F)CC2)CC1` (stereo not shown) [Compound 152], for which the 50% degradation concentration (DC50) (Table 1) is below 100 nM.

In the case of `COc1cc(-c2cn(C)c(=O)c3[nH]ncc23)cc(Cl)c1CN1CCC(CC(=O)N2CCC(c3ccc(NC4CCC(=O)NC4=O)cc3)CC2)C(F)(F)C1` (single isomer, unassigned) [Compound 204], under “Table 1”, the DC50 is below 100 nM.

In the case of `COc1cc(-c2cn(C)c(=O)c3[nH]ncc23)cc(F)c1C(=O)N1CCC(N(C)C(=O)N2CCC(c3ccc(NC4CCC(=O)NC4=O)cc3)CC2)CC1` (stereo not shown) [Compound 134], the DC50 (Table 1) is below 100 nM.

With `COc1cc(-c2cn(C)c(=O)c3cnccc23)c(Cl)cc1CN1CCC(N2CCN(c3ccc(NC4CCC(=O)NC4=O)cc3F)CC2)C(F)(F)C1` (stereo not shown) [Compound 255], the DC50 (Table 2) is below 100 nM.

Regarding `Cc1c(-c2ccc(CN3CCC(C4CCN(c5ccc(NC6CCC(=O)NC6=O)cc5F)CC4)CC3)c(OC(F)(F)F)c2)cn(C)c(=O)c1C` (stereo not shown) [Compound 80], the DC50 (Table 1) was below 100 nM.

As for `COc1cc(-c2cn(C)c(=O)c3ccc(F)cc23)cc(OC)c1CN1CCN(C(=O)CN2CCC(c3ccc(NC4CCC(=O)NC4=O)cc3)CC2)CC1` (stereo not shown) [Compound 27], the DC50 (Table 1) is below 100 nM.

With `COc1cc(-c2cn(C)c(=O)c3[nH]ncc23)cc(Cl)c1CN1CCN(C(=O)CC2CCN(c3ccc(NC4CCC(=O)NC4=O)cc3C(F)(F)F)CC2)CC1` (stereo not shown) [Compound 53], under “Table 1”, the DC50 is below 100 nM.

With `COc1cc(-c2cn(C)c(=O)c3ccccc23)cc(Cl)c1C(=O)N1CCC(N(C)C(=O)N2CCC(c3ccc(NC4CCC(=O)NC4=O)cc3)CC2)CC1` (stereo not shown) [Compound 136], where the note is “Table 1”, the DC50 is below 100 nM.

Take `COc1cc(-c2cn(C)c(=O)c3[nH]ncc23)cc(Cl)c1C(=O)N1CCC(C2CCN(c3ccc(NC4CCC(=O)NC4=O)cn3)CC2)CC1` (stereo not shown) [Compound 220]: the DC50 (Table 1) was below 100 nM.

As to `CN(C(=O)N1CCC(c2ccc(NC3CCC(=O)NC3=O)cc2)CC1)C1CCN(Cc2ccc(-c3cn(C)c(=O)c4cnccc34)cc2OC(F)(F)F)CC1` (stereo not shown) [Compound 122], the half-maximal degradation concentration (DC50) (Table 1) was below 100 nM.

With `COc1cc(-c2cn(C)c(=O)c3[nH]ncc23)cc(OC)c1CC1CCN(C(=O)CC2CCN(c3ccc(NC4CCC(=O)NC4=O)cc3C(F)(F)F)CC2)CC1` (stereo not shown) [Compound 160], the DC50 (Table 1) is below 100 nM.

For `COc1cc(-c2cn(C)c(=O)c3[nH]ncc23)cc(Cl)c1CN1CCN(C(=O)CN2CCC(c3ccc(NC4CCC(=O)NC4=O)cc3)C(F)(F)C2)CC1` (stereo not shown) [Compound 34], the DC50 (Table 1) was below 100 nM.

For the compound `COc1cc(-c2cn(C)c(=O)c3[nH]ncc23)cc(F)c1CC1CCN(CC(=O)N2CCC(c3ccc(NC4CCC(=O)NC4=O)cc3)CC2)CC1` (stereo not shown) [Compound 156, 3-[4-[1-[2-[4-[[2-fluoro-6-methoxy-4-(6-methyl-7-oxo-1H-pyrazolo[3,4-c]pyridin-4-yl)phenyl]methyl]-1-piperidyl]acetyl]-4-piperidyl]anilino]piperidine-2,6-dione], the DC50 (Table 1) is below 100 nM.

In the case of `COc1cc(-c2cn(C)c(=O)c3[nH]ncc23)cc(F)c1CN1CCC(N(C)C(=O)N2CCC(c3ccc(NC4CCC(=O)NC4=O)cc3)CC2)CC1` (stereo not shown) [Compound 112, 4-[4[(2,6-dioxo-3-piperidyl)amino]phenyl]-N-[1-[[2-fluoro-6-methoxy-4-(6-methyl-7-oxo-1H-pyrazolo[3,4-c]pyridin-4-yl)phenyl]methyl]-4-piperidyl]-N-methyl-piperidine-1-carboxamide], the half-maximal degradation concentration (DC50) (Table 1) was below 100 nM.

As for `COc1cc(-c2cn(C)c(=O)c(C)c2C)cc(Cl)c1CN1CCC(C2CCN(c3ccc(NC4CCC(=O)NC4=O)cc3F)CC2)C(F)(F)C1` (single isomer, unassigned) [Compound 256], for the setting “Table 2”, the DC50 was below 100 nM.

Turning to `COc1cc(CN2CCN(C(=O)CN3CCC(c4ccc(NC5CCC(=O)NC5=O)cc4)CC3)CC2)c(OCC(F)F)cc1-c1cn(C)c(=O)c2[nH]ncc12` (stereo not shown) [Compound 25], the DC50 (Table 1) is below 100 nM.

In the case of `COc1cc(-c2cn(C)c(=O)c3[nH]ncc23)cc(Cl)c1C(=O)N1CCC(CC(=O)N2CCC(c3ccc(NC4CCC(=O)NC4=O)cc3)CC2)CC1` (stereo not shown) [Compound 233], the DC50 (Table 1) is below 100 nM.

On to `COc1cc(-c2cn(C)c(=O)c(C)c2C)cc(Cl)c1CN1CCC(N2CCN(c3ccc(NC4CCC(=O)NC4=O)nc3)CC2)C(F)(F)C1` (stereo not shown) [Compound 196], for which the DC50 (Table 1) is below 100 nM.

On to `COc1cc(-c2cn(C)c(=O)c(C)c2C)cc(Cl)c1CN1CCc2c(CC3CCN(c4ccc(NC5CCC(=O)NC5=O)nc4)CC3)cccc2C1` (stereo not shown) [Compound 264, 3-[[5-[4-[[2-[[2-chloro-6-methoxy-4-(1,4,5-trimethyl-6-oxo-3-pyridyl)phenyl]methyl]-3,4-dihydro-1H-isoquinolin-5-yl]methyl]-1-piperidyl]-2-pyridyl]amino]piperidine-2,6-dione], for which the DC50 (Table 2) is below 100 nM.
